≈ marks a conversion by molar mass, not a printed value.
Key:
[1] = system: Vancomycin intermediate-resistant Staphylococcus aureus Mu50; assay: In vitro infectivity assay (MIC), Exp. Ex. 2-1; assay type: cell-based; conditions: Gram-positive, microdilution, MIC after 24 h
Protocol: (§1) The antibacterial activities were measured based on broth dilution techniques of international standards (Clinical Laboratory Standards Institute: CLSI). The activities were shown by minimum inhibitory concentrations (MICs) determined by inoculating the above-mentioned strains at a concentration of about 10^5 […] into Mueller-Hinton broth (manufactured by Difco) containing 0.85% NaCl in 96-well microplates and incubating the plates at 35° C. for 24 hours. Measurement was carried out three times.
(§2) The antibacterial activities of the compounds of the present invention against various strains such as vancomycin-resistant enterococci (VRE), vancomycin intermediate-resistant Staphylococcus aureus (VISA), methicillin-resistant Staphylococcus aureus (MRSA), and methicillin-sensitive Staphylococcus aureus (MSSA) were examined. Of the bacteria used in MIC measurement in this test example, clinical bacteria of MRSA (OM481 strain and OM584 strain) were supplied from Okayama University Hospital (Japan). An MRSA strain N315, a vancomycin intermediate-resistant Staphylococcus aureus (VISA) strain Mu50, and a methicillin-sensitive Staphylococcus aureus (MSSA) strain FDA 209P were used as controls. Vancomycin-resistant enterococcus (VRE) strains NCTC 12201 and FN-1 were supplied from the National Institute of Infectious Disease (Japan).

[2] = system: Vancomycin-resistant enterococci FN-1; assay: In vitro infectivity assay (MIC), Exp. Ex. 2-1; assay type: cell-based; conditions: Gram-positive; microdilution, MIC after 24 h
Protocol: as §1, §2

[3] = system: Vancomycin-resistant enterococci NCTC 12201; assay: In vitro infectivity assay (MIC), Exp. Ex. 2-1; assay type: cell-based; conditions: Gram-positive; microdilution, MIC after 24 h
Protocol: as §1, §2

[4] = system: Methicillin sensitive S. aureus 209P; assay: In vitro infectivity assay (MIC), Exp. Ex. 2-1; assay type: cell-based, Staphylococcus aureus; conditions: Gram-positive, microdilution, MIC after 24 h
Protocol: as §1, §2

[5] = system: Methicillin-resistant S. aureus COL; assay: In vitro infectivity assay (MIC), Exp. Ex. 2-1; assay type: cell-based, Staphylococcus aureus; conditions: Gram-positive, microdilution, MIC after 24 h
Protocol: as §1, §2

[6] = system: Methicillin-resistant S. aureus N315; assay: In vitro infectivity assay (MIC), Exp. Ex. 2-1; assay type: cell-based, Staphylococcus aureus; conditions: Gram-positive, microdilution, MIC after 24 h
Protocol: as §1, §2

[7] = system: Methicillin-resistant S. aureus OM481; assay: In vitro infectivity assay (MIC), Exp. Ex. 2-1; assay type: cell-based, Staphylococcus aureus; conditions: Gram-positive, microdilution, MIC after 24 h
Protocol: as §1, §2

[8] = system: Methicillin-resistant S. aureus OM584; assay: In vitro infectivity assay (MIC), Exp. Ex. 2-1; assay type: cell-based, Staphylococcus aureus; conditions: Gram-positive, microdilution, MIC after 24 h
Protocol: as §1, §2

[9] = system: Streptococcus pneumoniae R6; assay: In vitro infectivity assay (MIC), Exp. Ex. 2-1; assay type: cell-based; conditions: Gram-positive; microdilution, MIC after 24 h
[10] = system: Escherichia coli K-12; assay: Antibacterial activity (MIC) against Gram-negative strains, microdilution; assay type: cell-based; conditions: for MIC (Gram-nagative) K-12: MIC after 24 h
Protocol: as §1

[11] = system: Pseodomonas aeruginosa PAOI; assay: as above; assay type: cell-based; conditions: MIC after 24 h
Protocol: as §1

[12] = target: T1, E. coli DNA gyrase (Escherichia coli, UniProt P0AES4+P0AES6); assay: DNA gyrase inhibition (supercoiling kit), Exp. Ex. 2-2; assay type: biochemical; conditions: supercoiling activity, 37° C., 30 minutes; read-out: IC50 (E. coli DNA gyrase inhibitions)
T1 construct: purchased John Innes Enterprises #K0001
Protocol: As a kit for measurement of DNA gyrase of Escherichia coli, a product purchased from John Innes Enterprises (Gyrase Supercoiling assay kit #K0001) was used. Relaxed DNA was modified with gyrase into supercoiled DNA, and reaction products were separated by electrophoresis depending on the sizes of the molecular weights to examine anti-gyrase effects (IC50). 1 unit (1 U) of DNA gyrase and […] of relaxed pBR322 DNA were added to […] of the reaction solution, and the mixture was allowed to react at 37° C. for 30 minutes in the presence of 35 mM Tris-HCl (pH 7.5), 24 mM KCl, 4 mM MgCl2, 2 mM DTT, 1.8 mM spermidine, 1 mM ATP, 6.5% (w/v) glycerol, and 0.1 mg/ml BSA. The reactions were stopped using […] of a reaction stop solution (40% sucrose, 100 mM Tris-HCl (pH 7.5), 1 mM EDTA, 0.5 mg/ml bromophenol blue).

[13] = target: T2, Escherichia coli Topoisomerase IV (Escherichia coli, UniProt P0AFI2+P20083); assay: Topoisomerase IV inhibition (decatenation kit), Exp. Ex. 2-3; assay type: biochemical; conditions: decatenation of kDNA, 37° C., 30 minutes; read-out: IC50 (E. coli topoisomerase IV inhibitions)
T2 construct: purchased John Innes Enterprises
Protocol: (§3) Staphylococcus aureus Topoisomerase IV and Escherichia coli Topoisomerase IV were purchased from John Innes Enterprises. 1 unit of topoisomerase IV was cultured with 200 ng of kinetoplast DNA (kDNA) in 30 L of a reaction solution at 37° C. for 30 minutes under the conditions of 50 mM Tris-HCl (pH 7.5) (S. aureus)/50 mM HEPES-KOH (pH 7.6) (E. coli), 5 mM MgCl2 (S. aureus)/5 mM magnesium acetate (E. coli), 350 mM potassium glutamate (S. aureus)/100 mM potassium glutamate (E. coli), 5 mM dithiotheri (S. aureus)/10 mM dithiotheri (E. coli), 1.5 mM ATP (S. aureus)/1 mM ATP (E. coli), and 40% (w/v) glycerol. The reactions were stopped by adding 8 L of a reaction stop solution (40% sucrose, 100 mM Tris.HCl (pH 7.5), 1 mM EDTA, 0.5 mg/ml bromophenol blue). Agarose gel (1.0%) was poured into TAE (40 mM Tris acetate, 2 mM EDTA).

[14] = target: T3, Staphylococcus aureus Topoisomerase IV (Staphylococcus aureus, UniProt P0C1S7+P0C1U9); assay: as above; assay type: biochemical; conditions: decatenation of kDNA, 37° C., 30 minutes; read-out: IC50 (S. aureus topoisomerase IV inhibitions)
T3 construct: purchased John Innes Enterprises
Protocol: as §3

T2 sequence (P20083 whole entry): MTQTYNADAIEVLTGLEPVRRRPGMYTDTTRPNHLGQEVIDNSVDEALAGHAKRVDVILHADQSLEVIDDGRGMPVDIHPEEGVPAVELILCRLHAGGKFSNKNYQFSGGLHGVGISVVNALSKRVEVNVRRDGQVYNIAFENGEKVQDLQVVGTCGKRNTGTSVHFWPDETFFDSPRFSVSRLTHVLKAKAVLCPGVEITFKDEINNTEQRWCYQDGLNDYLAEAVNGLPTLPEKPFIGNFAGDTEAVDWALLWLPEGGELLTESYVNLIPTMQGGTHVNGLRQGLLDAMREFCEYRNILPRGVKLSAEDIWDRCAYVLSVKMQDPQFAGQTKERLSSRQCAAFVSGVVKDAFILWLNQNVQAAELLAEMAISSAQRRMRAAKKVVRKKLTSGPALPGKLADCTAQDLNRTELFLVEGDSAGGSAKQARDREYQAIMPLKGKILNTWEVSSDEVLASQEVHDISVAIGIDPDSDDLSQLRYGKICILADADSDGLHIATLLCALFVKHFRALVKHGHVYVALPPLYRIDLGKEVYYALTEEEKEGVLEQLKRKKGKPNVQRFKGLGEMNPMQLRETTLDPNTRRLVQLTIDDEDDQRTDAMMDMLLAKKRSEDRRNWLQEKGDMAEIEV
T2 sequence (P0AFI2 whole entry): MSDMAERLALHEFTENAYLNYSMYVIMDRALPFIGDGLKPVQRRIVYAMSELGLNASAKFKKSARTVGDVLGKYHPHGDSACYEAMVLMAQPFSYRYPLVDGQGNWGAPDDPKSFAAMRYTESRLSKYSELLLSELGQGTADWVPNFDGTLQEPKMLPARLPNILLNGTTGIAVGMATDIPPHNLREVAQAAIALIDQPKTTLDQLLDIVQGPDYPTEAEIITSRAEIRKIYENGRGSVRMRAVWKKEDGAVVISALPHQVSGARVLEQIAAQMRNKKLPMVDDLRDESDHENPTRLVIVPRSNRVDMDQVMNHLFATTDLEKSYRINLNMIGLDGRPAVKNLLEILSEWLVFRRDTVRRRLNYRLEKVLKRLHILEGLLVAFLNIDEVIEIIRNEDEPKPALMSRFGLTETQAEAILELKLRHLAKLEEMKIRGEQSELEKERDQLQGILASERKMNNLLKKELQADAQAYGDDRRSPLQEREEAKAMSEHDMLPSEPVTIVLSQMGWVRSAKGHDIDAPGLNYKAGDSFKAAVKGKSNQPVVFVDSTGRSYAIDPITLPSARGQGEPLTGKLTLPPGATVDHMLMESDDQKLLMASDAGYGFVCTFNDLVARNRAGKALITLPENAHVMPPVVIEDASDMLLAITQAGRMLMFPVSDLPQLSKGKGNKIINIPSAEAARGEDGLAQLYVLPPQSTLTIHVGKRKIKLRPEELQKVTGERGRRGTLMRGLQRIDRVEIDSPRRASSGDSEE
T1 sequence (P0AES4 whole entry, one chain of several): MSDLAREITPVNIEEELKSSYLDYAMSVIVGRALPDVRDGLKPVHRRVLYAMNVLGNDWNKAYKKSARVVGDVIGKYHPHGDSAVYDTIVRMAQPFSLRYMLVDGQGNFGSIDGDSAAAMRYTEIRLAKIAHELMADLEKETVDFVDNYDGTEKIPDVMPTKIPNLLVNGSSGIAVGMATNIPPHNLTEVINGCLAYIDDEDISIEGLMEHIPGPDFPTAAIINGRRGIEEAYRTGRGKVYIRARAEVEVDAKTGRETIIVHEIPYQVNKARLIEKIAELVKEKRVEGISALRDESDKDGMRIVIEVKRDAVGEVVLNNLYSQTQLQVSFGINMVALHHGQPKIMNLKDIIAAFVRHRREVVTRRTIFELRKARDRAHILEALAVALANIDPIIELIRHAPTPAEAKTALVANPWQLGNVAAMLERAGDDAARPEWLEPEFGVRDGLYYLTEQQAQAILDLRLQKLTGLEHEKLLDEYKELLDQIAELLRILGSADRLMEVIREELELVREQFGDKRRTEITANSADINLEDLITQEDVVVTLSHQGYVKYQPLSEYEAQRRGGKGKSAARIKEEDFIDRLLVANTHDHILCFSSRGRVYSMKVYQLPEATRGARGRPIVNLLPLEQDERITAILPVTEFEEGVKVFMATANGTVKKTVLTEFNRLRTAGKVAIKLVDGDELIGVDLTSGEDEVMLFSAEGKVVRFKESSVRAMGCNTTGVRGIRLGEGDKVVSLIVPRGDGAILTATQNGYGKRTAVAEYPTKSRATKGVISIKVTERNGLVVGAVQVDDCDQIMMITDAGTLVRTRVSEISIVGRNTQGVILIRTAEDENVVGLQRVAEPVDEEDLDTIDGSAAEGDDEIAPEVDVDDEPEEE
T3 sequence (P0C1U9 whole entry): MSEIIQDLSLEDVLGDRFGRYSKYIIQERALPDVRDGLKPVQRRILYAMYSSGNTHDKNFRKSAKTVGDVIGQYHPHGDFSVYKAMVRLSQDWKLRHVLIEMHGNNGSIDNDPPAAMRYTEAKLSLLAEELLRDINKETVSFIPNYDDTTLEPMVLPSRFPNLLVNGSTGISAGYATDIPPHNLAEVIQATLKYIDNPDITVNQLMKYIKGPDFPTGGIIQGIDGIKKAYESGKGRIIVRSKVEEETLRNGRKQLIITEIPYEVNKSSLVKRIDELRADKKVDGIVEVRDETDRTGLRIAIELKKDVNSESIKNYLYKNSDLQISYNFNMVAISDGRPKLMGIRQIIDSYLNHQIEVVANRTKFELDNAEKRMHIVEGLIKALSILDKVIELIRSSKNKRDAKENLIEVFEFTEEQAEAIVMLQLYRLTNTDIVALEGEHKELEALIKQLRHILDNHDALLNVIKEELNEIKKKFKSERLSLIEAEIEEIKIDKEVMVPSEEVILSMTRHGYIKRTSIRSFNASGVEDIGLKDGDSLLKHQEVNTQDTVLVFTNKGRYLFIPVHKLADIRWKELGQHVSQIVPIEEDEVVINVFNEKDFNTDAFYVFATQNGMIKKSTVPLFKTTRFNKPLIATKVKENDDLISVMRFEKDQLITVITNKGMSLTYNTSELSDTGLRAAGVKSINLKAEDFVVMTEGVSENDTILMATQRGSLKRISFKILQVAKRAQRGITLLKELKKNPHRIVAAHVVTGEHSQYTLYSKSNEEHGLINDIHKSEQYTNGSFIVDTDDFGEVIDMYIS
T3 sequence (P0C1S7 whole entry): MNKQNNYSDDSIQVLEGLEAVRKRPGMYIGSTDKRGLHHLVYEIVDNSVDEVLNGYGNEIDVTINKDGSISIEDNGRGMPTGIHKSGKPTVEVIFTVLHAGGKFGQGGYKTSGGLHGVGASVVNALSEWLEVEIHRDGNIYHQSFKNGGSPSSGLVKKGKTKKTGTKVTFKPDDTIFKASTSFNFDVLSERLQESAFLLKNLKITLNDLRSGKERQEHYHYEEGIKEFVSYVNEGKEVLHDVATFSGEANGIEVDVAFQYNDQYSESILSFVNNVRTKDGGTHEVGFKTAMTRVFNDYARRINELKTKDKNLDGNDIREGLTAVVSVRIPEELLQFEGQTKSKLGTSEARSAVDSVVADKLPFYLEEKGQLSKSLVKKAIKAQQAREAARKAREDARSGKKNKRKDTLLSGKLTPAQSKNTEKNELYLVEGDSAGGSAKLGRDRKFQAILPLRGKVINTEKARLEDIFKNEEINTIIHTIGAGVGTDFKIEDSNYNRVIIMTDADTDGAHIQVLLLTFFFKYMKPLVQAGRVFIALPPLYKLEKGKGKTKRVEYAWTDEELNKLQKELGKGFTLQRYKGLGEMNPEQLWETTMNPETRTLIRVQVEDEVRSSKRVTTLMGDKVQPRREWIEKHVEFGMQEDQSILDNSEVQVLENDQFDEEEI

Compound	MIC VISA Mu50 [1]	MIC VRE FN-1 [2]	MIC VRE NCTC 12201 [3]	MIC MSSA 209P [4]	MIC MRSA COL [5]	MIC MRSA N315 [6]	MIC MRSA OM481 [7]	MIC MRSA OM584 [8]	MIC S. Pneumoniae R6 [9]	MIC (Gram-nagative) K-12 [10]	MIC (Gram-nagative) PAO1 [11]	IC50 [12]	IC50 [13]	IC50 [14]	further results
CC(=O)OC[C@H]1O[C@@H](Oc2cc(O)c3c(=O)c(O[C@@H]4O[C@H](COC(C)=O)[C@H](OC(C)=O)[C@H](OC(C)=O)[C@H]4OC(C)=O)c(-c4ccc(O)c(O)c4)oc3c2)[C@H](OC(C)=O)[C@@H](OC(C)=O)[C@H]1OC(C)=O [Compound 5, 2-(3′,4′Dihydroxyphenyl)-5-hydroxy-3,7-di-β-D-octaacetylgalactosyl-4H-chromen-4-one]	64 mg/L (≈ 66.5 µM)	32 mg/L (≈ 33.2 µM)	32 mg/L (≈ 33.2 µM)	64 mg/L (≈ 66.5 µM)	128 mg/L (≈ 133 µM)	64 mg/L (≈ 66.5 µM)	32 mg/L (≈ 33.2 µM)	32 mg/L (≈ 33.2 µM)	64 mg/L (≈ 66.5 µM)	>128 mg/L	>128 mg/L	–	–	–	–
CC(=O)OC[C@H]1O[C@@H](Oc2c(-c3ccc(O)c(O)c3)oc3cc(O)cc(O)c3c2=O)[C@H](OC(C)=O)[C@@H](OC(C)=O)[C@H]1OC(C)=O [Compound 12, 2-(3′,4′-Dihydroxyphenyl)-5,7-dihydroxy-3-β-D-tetraacetylgalactosyl-4H-chromen-4-one]	128 mg/L (≈ 202 µM)	64 mg/L (≈ 101 µM)	64 mg/L (≈ 101 µM)	128 mg/L (≈ 202 µM)	>128 mg/L	128 mg/L (≈ 202 µM)	128 mg/L (≈ 202 µM)	128 mg/L (≈ 202 µM)	128 mg/L (≈ 202 µM)	>128 mg/L	>128 mg/L	–	–	–	–
O=C(OC[C@H]1O[C@@H](Oc2c(-c3ccc(O)c(O)c3)oc3cc(O)cc(O)c3c2=O)[C@H](OC(=O)c2ccc(F)cc2)[C@@H](O)[C@H]1O)c1ccc(F)cc1 [Compound 14c, 2-(3′,4′-Dihydroxyphenyl)-5,7-dihydroxy-3-β-D-[2″,6″-di-O-(4-fluorobenzoyl)]galactosyl-4H-chromen-4-one]	2 mg/L (≈ 2.82 µM)	4 mg/L (≈ 5.65 µM)	4 mg/L (≈ 5.65 µM)	4 mg/L (≈ 5.65 µM)	8 mg/L (≈ 11.3 µM)	8 mg/L (≈ 11.3 µM)	2 mg/L (≈ 2.82 µM)	2 mg/L (≈ 2.82 µM)	4 mg/L (≈ 5.65 µM)	>128 mg/L	>128 mg/L	0.38 µM	7.02 µM	0.52 µM	–
O=C(Cc1ccc(F)cc1)OC[C@H]1O[C@@H](Oc2c(-c3ccc(O)c(O)c3)oc3cc(O)cc(O)c3c2=O)[C@H](OC(=O)Cc2ccc(F)cc2)[C@@H](O)[C@H]1O [Compound 14e, 2-(3′,4′-Dihydroxyphenyl)-5,7-dihydroxy-3-β-D-[2″,6″-di-O-(4-fluorophenylacetyl)]galactosyl-4H-chromen-4-one]	1 mg/L (≈ 1.36 µM)	0.5 mg/L (≈ 0.679 µM)	0.5 mg/L (≈ 0.679 µM)	1 mg/L (≈ 1.36 µM)	8 mg/L (≈ 10.9 µM)	1 mg/L (≈ 1.36 µM)	1 mg/L (≈ 1.36 µM)	1 mg/L (≈ 1.36 µM)	0.5 mg/L (≈ 0.679 µM)	>128 mg/L	>128 mg/L	1.05 µM	7.21 µM	0.46 µM	–
CCOc1ccc(CCC(=O)OC[C@H]2O[C@@H](Oc3c(-c4ccc(O)c(O)c4)oc4cc(O)cc(O)c4c3=O)[C@H](OC(=O)CCc3ccc(OCC)cc3)[C@@H](O)[C@H]2O)cc1 [Compound 14g, 2-(3′,4′-Dihydroxyphenyl)-5,7-dihydroxy-3-β-D-{2″,6″-di-O-[3′″-(4-ethoxyphenylpropanoyl)]}galactosyl-4H-chromen-4-one]	1 mg/L (≈ 1.22 µM)	2 mg/L (≈ 2.45 µM)	2 mg/L (≈ 2.45 µM)	2 mg/L (≈ 2.45 µM)	4 mg/L (≈ 4.9 µM)	2 mg/L (≈ 2.45 µM)	1 mg/L (≈ 1.22 µM)	1 mg/L (≈ 1.22 µM)	8 mg/L (≈ 9.79 µM)	>128 mg/L	>128 mg/L	5.39 µM	> 12 µM	2.99 µM	–
Cc1ccc(CCC(=O)OC[C@H]2O[C@@H](Oc3c(-c4ccc(O)c(O)c4)oc4cc(O)cc(O)c4c3=O)[C@H](OC(=O)CCc3ccc(C)cc3)[C@@H](O)[C@H]2O)cc1 [Compound 14h, 2-(3′,4′-Dihydroxyphenyl)-5,7-dihydroxy-3-β-D-{2″,6″-di-O-[3′″-(4-methylphenylpropanoyl)]}galactosyl-4H-chromen-4-one]	0.5 mg/L (≈ 0.661 µM)	0.5 mg/L (≈ 0.661 µM)	0.5 mg/L (≈ 0.661 µM)	0.25 mg/L (≈ 0.33 µM)	1 mg/L (≈ 1.32 µM)	0.25 mg/L (≈ 0.33 µM)	0.25 mg/L (≈ 0.33 µM)	0.25 mg/L (≈ 0.33 µM)	0.25 mg/L (≈ 0.33 µM)	>128 mg/L	>128 mg/L	2.09 µM	7.46 µM	1.49 µM	–
CO[C@@H]1[C@@H](OC(N)=O)[C@@H](O)[C@H](Oc2ccc3c(O)c(NC(=O)c4ccc(O)c(CC=C(C)C)c4)c(=O)oc3c2C)OC1(C)C [Novobiocin, novobiocin, reference compound]	–	–	–	–	–	–	–	–	–	–	–	–	–	–	MIC ([1]; Staphylococcus aureus, VISA, read-out: MIC VISA Mu50): 8 mg/L (≈ 13.1 µM); MIC ([4]; Staphylococcus aureus, 209P / MSSA, read-out: MIC MSSA 209P): 0.125 mg/L (≈ 0.204 µM); MIC ([5]; Staphylococcus aureus, MRSA): 0.25 mg/L (≈ 0.408 µM); MIC ([6]; Staphylococcus aureus, MRSA, read-out: MIC MRSA N315): 0.125 mg/L (≈ 0.204 µM); MIC ([7]; Staphylococcus aureus, MRSA, read-out: MIC MRSA OM481): 0.25 mg/L (≈ 0.408 µM); MIC ([8]; Staphylococcus aureus, MRSA, read-out: MIC MRSA OM584): 0.25 mg/L (≈ 0.408 µM); MIC ([10]; K12, MIC after 24 h, read-out: MIC (Gram-nagative) K-12): 8 mg/L (≈ 13.1 µM); MIC ([11]; read-out: MIC (Gram-nagative) PAO1): 8 mg/L (≈ 13.1 µM)
penicillin [reference compound]	–	–	–	–	–	–	–	–	0.5 mg/L	–	–	–	–	–	–
